Reference: PubChem BioAssay AID1919005 (Molecular Pharmacology Branch, DTP, NCI, 2023)
Several values for one entry are separate records, joined by “and”; a condition that tells them apart may be missing. Equal values may be shown once.

Test system: 855422-203-R-J1-PDC complex spheroid growth
Test: Anticancer human tumor 855422-203-R-J1-PDC patient-derived bladder carcinoma cell line growth inhibition [AhR]
Conditions: for viability, T/C: stronger effect = lower value
Excerpt: Multicellular complex tumor spheroid response to aryl hydrocarbon receptor antagonists in combination with a variety of drugs and investigational agents in selected tumor cell lines
The current study was undertaken to assess response to aryl hydrocarbon receptor antagonists in combination with standard-of-care drugs and investigational agents in solid tumor complex spheroid models. Complex spheroids include a stromal component modeled by human endothelial cells (HUVEC) and fibroblasts modeled by human mesenchymal stem cells (MSCs). The concentration ranges selected for each drug and investigational agent were based upon clinically achievable concentrations if the clinical Cmax of the agent was known.
Compounds. The drugs and investigational agents: BAY 2416964 (NSC825713), GNF351 (NSC835774), CH-223191 (NSC835775), CPI-455 (NSC825282), aza-TdCyd (NSC777586), decitabine (NSC127716), belinostat (NSC758774), entinostat (NSC756642), pevonedistat (NSC761192), tazemetostat (NSC777109), talazoparib (NSC765396), olaparib (NSC753686), selinexor (NSC780203), nedisertib (M3814, NSC802822), bortezomib (NSC756655), venetoclax (NSC766270), doxorubicin (NSC123127), elimusertib (BAY189344, NSC800525), ceralasertib (AZD6738, NSC777638), TAK-243 (NSC785004), alisertib (NSC759677), etoposide (NSC141540), topotecan (NSC609699), eribulin (NSC707389), gemcitabine (NSC613327), carboplatin (NSC241240), cisplatin (NSC119875), and SN-38 (NSC673596) were obtained from the National Cancer Institute (NCI) Developmental Therapeutics Program Chemical Repository (32). The FDA-approved anticancer drug set is available from the Developmental Therapeutics Program at https://dtp.cancer.gov/organization/dscb/obtaining/available plates.htm. […] The stock solutions were prepared in dimethyl sulfoxide (DMSO, Sigma-Aldrich, St. Louis, MO, cat. D2650), except for the platinum compounds which were prepared in saline (Quality Biological, Gaithersburg, MD, cat. 114-055-101), at 800-fold the tested concentration and stored at -70 degrees C prior to their use. All drugs and investigational agents were tested over a range starting from a high concentration at or near the clinical Cmax and decreasing in half-log increments. If the clinical Cmax for an agent had not been determined, the highest concentration tested was 10 microM (Table 1).
Cell Culture. All cells were maintained in an incubator at 37 degrees C and 5% CO2 with 95% humidity. The PDC lines were cultured according to standard operating procedures established by the NCI PDMR (https://pdmr.cancer.gov). Briefly, all PDCs were thawed and cultured in Matrigel-coated flasks prepared with a working solution of 1X Ham's F-12 nutrient mix, without supplementation (Invitrogen, Waltham, MA, cat. 11765054), 100 U/mL penicillin-streptomycin (Invitrogen, cat. 15140122), and 2.5% Matrigel (Corning Inc., Corning, NY, cat. 354248) for the first three passages. All PDCs were cultured in complete DMEM/F-12 media containing advanced DMEM/F-12 (Invitrogen, cat. 12634028), 4.9% defined fetal bovine serum, heat inactivated (HyClone Laboratories Inc., Logan, UT, cat. SH30070.03HI), 389 ng/mL hydrocortisone (Sigma-Aldrich, cat. H4001), 9.7 ng/mL human EGF recombinant protein (Invitrogen, cat. PHG0313), 23.4 microg/mL adenine (Sigma-Aldrich, cat. A2786), 97.3 U/mL penicillin-streptomycin (Invitrogen, cat. 15140122), 1.9 mM L-glutamine (Invitrogen, cat. 25030081), and 9.7 microM Y-27632 dihydrochloride (Tocris Bioscience, Bristol, United Kingdom, cat. 1254). The PDCs were cultured in complete DMEM/F12 media without 10 microM Y-27632 dihydrochloride for at least two passages prior to the screen. The established cell lines NCI-H1341 and […] were cultured in DMEM/F-12, HEPES (Invitrogen, cat. 11330032), 5% defined fetal bovine serum (HyClone Laboratories Inc., cat. SH30070.03), ITS premix universal culture supplement [insulin (5 microg/mL), transferrin (5 microg/mL), and selenious acid (5 ng/mL)] […]

[1] = curve of first compound, second compound 0.1 µM
[2] = curve of first compound, second compound 0.316 µM
[3] = curve of first compound, second compound 1 µM
[4] = curve of first compound, second compound 3.16 µM
[5] = curve of first compound, second compound 10 µM
[6] = second compound 0.1 µM, first compound 0.0316 µM
[7] = second compound 0.1 µM, first compound 0.1 µM
[8] = second compound 0.1 µM, first compound 0.316 µM
[9] = second compound 0.1 µM, first compound 1 µM
[10] = second compound 0.316 µM, first compound 0.0316 µM
[11] = second compound 0.316 µM, first compound 0.1 µM
[12] = second compound 0.316 µM, first compound 0.316 µM
[13] = second compound 0.316 µM, first compound 1 µM
[14] = second compound 1 µM, first compound 0.0316 µM
[15] = second compound 1 µM, first compound 0.1 µM
[16] = second compound 1 µM, first compound 0.316 µM
[17] = second compound 1 µM, first compound 1 µM
[18] = second compound 3.16 µM, first compound 0.0316 µM
[19] = second compound 3.16 µM, first compound 0.1 µM
[20] = second compound 3.16 µM, first compound 0.316 µM
[21] = second compound 3.16 µM, first compound 1 µM
[22] = second compound 10 µM, first compound 0.0316 µM
[23] = second compound 10 µM, first compound 0.1 µM
[24] = second compound 10 µM, first compound 0.316 µM
[25] = second compound 10 µM, first compound 1 µM
[26] = second compound 0.1 µM, first compound 0.00316 µM
[27] = second compound 0.1 µM, first compound 0.01 µM
[28] = second compound 0.316 µM, first compound 0.00316 µM
[29] = second compound 0.316 µM, first compound 0.01 µM
[30] = second compound 1 µM, first compound 0.00316 µM
[31] = second compound 1 µM, first compound 0.01 µM
[32] = second compound 3.16 µM, first compound 0.00316 µM
[33] = second compound 3.16 µM, first compound 0.01 µM
[34] = second compound 10 µM, first compound 0.00316 µM
[35] = second compound 10 µM, first compound 0.01 µM
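Further: spheroids exposed to agents for seven days before readout.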
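Wherever viability, T/C is given: percent of DMSO vehicle control luminescence viability.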

## CC1COCCN1c1cc(C2(S(C)(=N)=O)CC2)nc(-c2ccnc3[nH]ccc23)n1 (configuration not stated) + Cc1cncc(-c2nc(NCCc3c[nH]c4ccccc34)c3ncn(C(C)C)c3n2)c1
[1]
  IC50: 6.69 µM
[2]
  IC50: 6.72 µM
[3]
  IC50: 6.27 µM
[4]
  IC50: 1.65 µM
[5]
  IC50: < 0.0316 µM
[6]
  viability, T/C: 96.7%
[7]
  viability, T/C: 88.9%
[8]
  viability, T/C: 83.1%
[9]
  viability, T/C: 98.6%
Second compound 0.1 µM, first compound 3.16 µM
  viability, T/C: 114%
Second compound 0.1 µM, first compound 10 µM
  viability, T/C: 25.1%
[10]
  viability, T/C: 84.1%
[11]
  viability, T/C: 81.6%
[12]
  viability, T/C: 79.7%
[13]
  viability, T/C: 98.3%
Second compound 0.316 µM, first compound 3.16 µM
  viability, T/C: 110%
Second compound 0.316 µM, first compound 10 µM
  viability, T/C: 28.4%
[14]
  viability, T/C: 80.4%
[15]
  viability, T/C: 81.8%
[16]
  viability, T/C: 66.9%
[17]
  viability, T/C: 79.1%
Second compound 1 µM, first compound 3.16 µM
  viability, T/C: 92%
Second compound 1 µM, first compound 10 µM
  viability, T/C: 29.5%
[18]
  viability, T/C: 69%
[19]
  viability, T/C: 70.7%
[20]
  viability, T/C: 74.2%
[21]
  viability, T/C: 48.4%
Second compound 3.16 µM, first compound 3.16 µM
  viability, T/C: 44.6%
Second compound 3.16 µM, first compound 10 µM
  viability, T/C: 17.9%
[22]
  viability, T/C: 23.8%
[23]
  viability, T/C: 27.1%
[24]
  viability, T/C: 12.5%
[25]
  viability, T/C: 9.69%
Second compound 10 µM, first compound 3.16 µM
  viability, T/C: 8.26%
Second compound 10 µM, first compound 10 µM
  viability, T/C: 5.32%

## O=C(C=Cc1cccc(S(=O)(=O)Nc2ccccc2)c1)NO
Compound 0.0316 µM
  viability, T/C: 84% and 110% and 92.6%
Compound 0.1 µM
  viability, T/C: 84.6% and 109% and 91.1%
Compound 0.316 µM
  viability, T/C: 88.4% and 108% and 90%
Compound 1 µM
  viability, T/C: 69% and 106% and 70.5%
Compound 3.16 µM
  viability, T/C: 29.5% and 61% and 34.7%
Compound 10 µM
  viability, T/C: 0.96% and 4.09% and 0.82%
Curve of compound
  IC50: 1.77 µM and 3.95 µM and 1.95 µM

## Nc1ncn(C2CC(O)C(CO)O2)c(=O)n1 (configuration not stated) + Cc1cncc(-c2nc(NCCc3c[nH]c4ccccc34)c3ncn(C(C)C)c3n2)c1
[1]
  IC50: > 1 µM
[2]
  IC50: > 1 µM
[3]
  IC50: > 1 µM
[4]
  IC50: > 1 µM
[5]
  IC50: < 0.00316 µM
[26]
  viability, T/C: 99.1%
[27]
  viability, T/C: 94.1%
[6]
  viability, T/C: 88.8%
[7]
  viability, T/C: 86.2%
[8]
  viability, T/C: 82%
[9]
  viability, T/C: 77.5%
[28]
  viability, T/C: 86.8%
[29]
  viability, T/C: 88.5%
[10]
  viability, T/C: 81.9%
[11]
  viability, T/C: 79.8%
[12]
  viability, T/C: 82.5%
[13]
  viability, T/C: 75%
[30]
  viability, T/C: 91.9%
[31]
  viability, T/C: 90%
[14]
  viability, T/C: 85.5%
[15]
  viability, T/C: 86.4%
[16]
  viability, T/C: 82.4%
[17]
  viability, T/C: 74.6%
[32]
  viability, T/C: 79.9%
[33]
  viability, T/C: 86.5%
[18]
  viability, T/C: 79.3%
[19]
  viability, T/C: 71.4%
[20]
  viability, T/C: 82%
[21]
  viability, T/C: 69%
[34]
  viability, T/C: 10.8%
[35]
  viability, T/C: 6.45%
[22]
  viability, T/C: 2.54%
[23]
  viability, T/C: 7.37%
[24]
  viability, T/C: 9.7%
[25]
  viability, T/C: 7.88%

## Cn1ncnc1C1c2n[nH]c(=O)c3cc(F)cc(c23)NC1c1ccc(F)cc1 (configuration not stated) + Cc1ccccc1N=Nc1ccc(NC(=O)c2ccnn2C)c(C)c1
[1]
  IC50: > 0.1 µM
[2]
  IC50: > 0.1 µM
[3]
  IC50: > 0.1 µM
[4]
  IC50: > 0.1 µM
[5]
  IC50: > 0.1 µM
Second compound 0.1 µM, first compound 0.000316 µM
  viability, T/C: 102%
Second compound 0.1 µM, first compound 0.001 µM
  viability, T/C: 96%
[26]
  viability, T/C: 102%
[27]
  viability, T/C: 100%
[6]
  viability, T/C: 93.8%
[7]
  viability, T/C: 100%
Second compound 0.316 µM, first compound 0.000316 µM
  viability, T/C: 106%
Second compound 0.316 µM, first compound 0.001 µM
  viability, T/C: 96.4%
[28]
  viability, T/C: 95.7%
[29]
  viability, T/C: 96.1%
[10]
  viability, T/C: 92.6%
[11]
  viability, T/C: 90%
Second compound 1 µM, first compound 0.000316 µM
  viability, T/C: 104%
Second compound 1 µM, first compound 0.001 µM
  viability, T/C: 105%
[30]
  viability, T/C: 97.7%
[31]
  viability, T/C: 103%
[14]
  viability, T/C: 98.2%
[15]
  viability, T/C: 96.3%
Second compound 3.16 µM, first compound 0.000316 µM
  viability, T/C: 88.4%
Second compound 3.16 µM, first compound 0.001 µM
  viability, T/C: 97.3%
[32]
  viability, T/C: 93.9%
[33]
  viability, T/C: 90.8%
[18]
  viability, T/C: 87.4%
[19]
  viability, T/C: 91.8%
Second compound 10 µM, first compound 0.000316 µM
  viability, T/C: 80.1%
Second compound 10 µM, first compound 0.001 µM
  viability, T/C: 78.5%
[34]
  viability, T/C: 82.5%
[35]
  viability, T/C: 81.6%
[22]
  viability, T/C: 76.2%
[23]
  viability, T/C: 77%
